Experimental findings from patent US5059602A, “4-substituted dihydropyrido(4,3-d)pyrimidines as analgesics and topical antiinflammatory agents for the treatment of skin disorders” (Hoechst-Roussel Pharmaceuticals Inc., priority 1990, dated 1991) are described below.

For assay [1], the system named is 2-phenyl-1,4-benzoquinone-induced writhing. The assay is described as follows: 2-phenyl-1,4-benzoquinone-induced writhing test (PQW). Type of assay: in vivo, mice. The conditions noted are these: Mus musculus, sc, read-out: PQW % Inhibition of writhing.
Assay [2] concerns ear edema induced by topical application of TPA (phorbol 12-myristate acetate). As to the kind of experiment: TPA-Induced Ear Edema (TPAEE). Type of assay: in vivo, Female Swiss Webster mice. As to conditions: for change in vivo at 10 µg/ear: 5 h, read-out: TPAEE. As to the method: TPA-Induced Ear Edema (TPAEE)
The purpose of this assay was to determine the ability of a topically-applied compound to prevent ear edema induced by topical application of TPA (phorbol 12-myristate acetate). Female Swiss Webster mice topically received TPA (10 μg/ear) on the right ear and vehicle on the left ear. The test compound (10 μg/ear) was applied to both ears. After five hours, the animals were sacrificed and an ear punch (4 mm) was taken from each ear. The difference in right and left ear punch weights for each animal was determined to assess activity. […] See Young, J. M. et al., J. Invest. Dermatol., 80 (1983), pp. 48-52.

For assay [3], the system named is naja naja (snake venom) phospholipase A2 -induced paw edema. As to the kind of experiment: Phospholipase A2-induced Paw Edema (PIPE). As to conditions: 0.1M; rat hindpaw, subplantar injection with PLA2 (3 units/paw), 2 hours. Type of assay: in vivo, male Wistar rats. As to the method: Phospholipase A2 -induced Paw Edema (PIPE)
The ability of compounds to prevent naja naja (snake venom) phospholipase A2 -induced paw edema in male Wistar rats (100-125 g) was measured. PLA2 (3 units/paw) alone or with 0.1M of the test compound was injected in the subplantar region of the rat left hindpaw. Immediately subsequent to the injection and at two hours post administration the paw was immersed in a mercury bath, and paw displacement was measured on a recorder via a transducer. […] See Giessler, A. J. et al., Agents and Actions, Vol. 10, Trends in Inflammation Research (1981), p. 195.

In assay [4] the test system is mouse ear edema induced by topical application of arachidonic acid. The assay is described as follows: Arachidonic Acid-Induced Ear Edema (AAEE). The format is in vivo, Female Swiss Webster mice. The conditions noted are these: for AAEE: 1.0 mg (per ear), mouse. As to the method: Arachidonic Acid-Induced Ear Edema (AAEE)
The purpose of this assay was to determine the ability of a topically-applied compound to prevent mouse ear edema induced by topical application of arachidonic acid. Female Swiss Webster mice topically received vehicle or test compound (1.0 mg/ear) on both ears (10 μl on outer and inner ears). After 30 minutes, the right ear of all groups received arachidonic acid (4 mg/ear) and the left ear received vehicle alone. After an additional 1 hour, the mice were sacrificed and an ear punch (4 mm) was taken from each ear. The difference in right and left ear punch weights for each animal was determined to assess activity. […] See Young, J. M. et al., Invest. Dermatol., 80, (1983), pp 48-52.

Setting [5] is: 10 μg (per ear), mouse, five hours.

Where a name gives a salt, the structure may show the parent alone. Read-outs that look alike come from different tables or passages of the source.

`CC1c2cnccc2N=CN1Cc1ccccc1` (centres unmarked) [3,4-Dihydro-4-methyl-3-phenylmethylpyrido[4,3-d]pyrimidine dihydrochloride]: in assay [1], the inhibition in vivo at 20 mg/kg came to 85%. In assay [2] (Mus musculus), the change in vivo at 10 µg/ear was -55%. As to `Cl.Cl.Nc1ccncc1CNCc1ccccc1` [3-[(Phenylmethylamino)methyl]-4-pyridinamine dihydrochloride], in assay [3], the “PIPE (difference in edema vs. control)” value is given as -51%.

As for `CC(NCc1ccccc1)c1cnccc1N` (stereo not drawn) [4-Amino-α-methyl-N-(phenylmethyl)-3-pyridinemethanamine], the inhibition in vivo at 20 mg/kg in assay [1] (20 mg/kg, s.c.) worked out at 58%. In addition, the change in vivo at 10 µg/ear in assay [2] (setting [5]) was -45%. Turning to `C1=NC(C2CCCCC2)c2cnccc2N1.Cl.Cl` (centres unmarked) [4-Cyclohexyl-1,4-dihydropyrido[4,3-d]pyrimidine dihydrochloride], in assay [3], the “PIPE (difference in edema vs. control)” value is on record as -44%. As for `Nc1ccncc1C(N)c1ccccc1` (centres unmarked) [(4-Amino-3-pyridinyl)benzenemethanamine dihydrochloride], the “PIPE (difference in edema vs. control)” value in assay [3] is reported as -66%. With `Cl.Cl.Nc1ccncc1C(N)C1CCCCC1` (centres unmarked) [(4-Amino-3-pyridinyl)cyclohexylmethanamine dihydrochloride], in assay [2] (setting [5]), the change in vivo at 10 µg/ear was -36%. Moreover, the “PIPE (difference in edema vs. control)” value in assay [3] is on record as -68%. For the same compound, the AAEE in assay [4] is reported as -28%. As to `Nc1ccncc1C(=O)C1CCCCC1` [(4-Amino-3-pyridinyl)cyclohexylmethanone hydrochloride], the change in vivo at 10 µg/ear in assay [2] (setting [5]) is -53%. As to `Nc1ccncc1C(=NO)C1CCCCC1` [(4-Amino-3-pyridinyl)cyclohexylmethanone oxime hydrochloride], the change in vivo at 10 µg/ear in assay [2] (setting [5]) was -34%. For `Nc1ccncc1C(=NO)c1ccccc1` [(4-Amino-3-pyridinyl)phenylmethanone oxime hydrochloride], the change in vivo at 10 µg/ear in assay [2] (setting [5]) was -32%. Consider `CC(=O)c1cnccc1NC(=O)C(C)(C)C` [N-(3-Acetyl-4-pyridinyl)-2,2-dimethylpropanamide], for which, in assay [1] (20 mg/kg, s.c.), the inhibition in vivo at 20 mg/kg amounted to 34%. For `CC(NCc1ccccc1)c1cnccc1NC(=O)C(C)(C)C.Cl.Cl` (centres unmarked) [N-[3-[1-(Phenylmethylamino)ethyl]-4-pyridinyl]-2,2-dimethylpropionamide dihydrochloride], the AAEE in assay [4] is recorded as -44%. Still for that read-out and setting: to `CCCCNCc1cnccc1NC(=O)C(C)(C)C.Cl.Cl` [N-[3-[(Butylamino)methyl]-4-pyridinyl]-2,2-dimethylpropanamide dihydrochloride] belongs -45%. As for `C[C@]12CCC(=O)C=C1CC[C@@H]1[C@@H]2[C@@H](O)C[C@@]2(C)[C@H]1CC[C@]2(O)C(=O)CO` [hydrocortisone, reference compound], in assay [2] (standard, TPAEE), the ED50 is 47 μg/ear. With `COc1ccc2c(c1)c(CC(=O)O)c(C)n2C(=O)c1ccc(Cl)cc1` [indomethacin, reference compound], the ED50 in assay [4] (standard, AAEE) came to 1.5 mg/ear. Regarding `CC(C)(C)C(=O)Nc1ccncc1C(O)C1CCCCC1` (stereo not drawn) [α-Cyclohexyl-α-[4-(2,2-dimethylpropionamido)-3-pyridinyl]-methanol], the inhibition in vivo at 20 mg/kg in assay [1] (20 mg/kg, s.c.) was 32%. In assay [2] (setting [5]), the change in vivo at 10 µg/ear is -55%. For the same compound, in assay [3], the “PIPE (difference in edema vs. control)” value is recorded as -35%. The AAEE in assay [4] is on record as -52%. Take `CC(O)c1cnccc1NC(=O)C(C)(C)C` (stereo not drawn) [α-Methyl-α-[4-(2,2-dimethylpropionamido)-3-pyridinyl]-methanol]: the change in vivo at 10 µg/ear in assay [2] (setting [5]) was -46%.
